{"source": "paper PMC5397431", "about": "“Multigeneration toxicity of imidacloprid and thiacloprid to Folsomia candida” (Ecotoxicology (London, England), 2017)", "origin": "cited, not measured here", "key": {"[1]": {"tested_on": "honeybees", "set-up": "method as in Iwasa et al. (2004)", "conditions": "acute dermal exposure; ref Iwasa et al. (2004); cited from earlier work"}, "[2]": {"tested_on": "Aphis gossypii", "set-up": "method as in Shi et al. (2011)", "conditions": "exposed dermally for 48 h; ref Shi et al. (2011); cited from earlier work"}, "[3]": {"tested_on": "Folsomia candida", "conditions": "cited from earlier work"}, "[4]": {"conditions": "28-day exposure, Lufa 2.2, ~3.0% OM, pure, ref De Lima e Silva et al. (submitted)"}, "[5]": {"conditions": "artificial soil, 10% OM, based on regression analysis, ref Reynolds (2008)"}}, "data": [{"compound": "O=[N+]([O-])NC1=NCCN1Cc1ccc(Cl)nc1", "note": "[Imidacloprid, imidacloprid]", "values": [{"measurement": "times more toxic than thiacloprid", "setting": "[1]", "value": "about 800 times"}, {"measurement": "times more sensitive than to thiacloprid", "setting": "[2]", "value": "about 7.5 times"}, {"measurement": "EC50", "setting": "[3]; [4]", "value": "0.097-0.30 mg/kg dry soil"}, {"measurement": "LC50", "setting": "[3]; [4]", "value": "0.20-0.65 mg/kg dry soil"}, {"measurement": "NOEC", "setting": "[3]; active substance, ref EFSA (2008)", "value": 1.25, "unit": "mg/kg dry soil"}, {"measurement": "EC50 reported by Reynolds", "setting": "[3]; [5]", "value": 0.60, "unit": "mg/kg"}, {"measurement": "LC50 reported by Reynolds", "setting": "[3]; [5]", "value": 1.38, "unit": "mg/kg"}]}]}
